Laboratory results as given in patent US20130273564A1, “DISPERSION INJECTION METHODS FOR BIOSENSING” (priority 2010, published 2013).

Tested on: partially denatured carbonic anhydrase II
Details: sigmoidal TDi, degraded surface, 10° C., global two-site interaction model
Description: A second sensing surface remained uncoated to provide an accurate reference surface. […] FCI was performed by separately injecting 50 μL of each dilution at a rate of 50 μL min^−1. EDTA was excluded from the buffer to maintain the binding activity of the Zn-dependent carbonic anhydrase 11.
Two separate sigmoidal TDi assays were performed. The first sigmoidal TDi assay (FIG. 8B) was performed by injecting 250 μL of analyte sample at a flow rate of 100 μL min^−1 using a dispersion tube having a total volume capacity of 512 μL and a diameter of 0.50 mm. […] The second sigmoidal TDi assay (FIG. 8C) was performed by injecting 250 μL of analyte sample at a flow rate of 50 μL min^−1 using a dispersion tube having a total volume capacity of 512 μL and a diameter of 0.50 mm. […] The carbonic anhydrase II-coated surface was permitted to degrade at 25° C. for several days before performing the sigmoid TDi analysis. The second TDi assay was performed at 10° C. to preserve weak non-specific binding in order to mimic a realistic complex data set.

In the case of `NS(=O)(=O)c1cc(C(=O)O)c(NCc2ccco2)cc1Cl` [furosemide], the D is reported as 4.49(1)×10^−10 m^2s^−1.
